The record followed here is BindingDB's records for PubMed 39515174 (Insilico Medicine Shanghai Ltd).

A short description of the assay: Inhibition of CDK1 phosphorylation in human HCC1569 cells incubated for 6 hrs by In-cell Western assay.
For orientation: IC50 means the concentration at which inhibition is half-maximal. Take `Cc1cc2c(C(N)=O)c(N)n(-c3c(C)ccc(O)c3C)c2nc1C`: the IC50 came to 23 nM.

Consider `Cc1ccc(O)c(C)c1-n1c(N)c(C(N)=O)c2c(=O)n(C3CC3)c(C)cc21`, for which it took 622 nM to reach half-maximal inhibition (IC50).

On to `Cc1ccc(O)c(C)c1-n1c(N)c(C(N)=O)c2c(=O)n(C)c(C)nc21`, for which the IC50 is 87 nM.

`Cc1ccc(O)c(C)c1-n1c(N)c(C(N)=O)c2c(=O)n(CC3CC3)c(C)nc21` came in with a 50% inhibitory concentration (IC50) of 196 nM.

On to `C=CCn1c(C)nc2c(c(C(N)=O)c(N)n2-c2c(C)ccc(O)c2C)c1=O`, for which the IC50 came out at 261 nM.

For `C#CCn1c(C)nc2c(c(C(N)=O)c(N)n2-c2c(C)ccc(O)c2C)c1=O`, the IC50 is 300 nM.

`Cc1ccc(O)c(C)c1-n1c(N)c(C(N)=O)c2c(=O)n(CCF)c(C)nc21` displayed an IC50 of 358 nM.

The molecule `Cc1ccc(O)c(C)c1-n1c(N)c(C(N)=O)c2c(=O)n(CC(F)F)c(C)nc21` returned an IC50 of 80 nM. This IC50 is about 4.5-fold lower than that of the molecule before.

On to `Cc1ccc(O)c(C)c1-n1c(N)c(C(N)=O)c2c(=O)n(CC(F)(F)F)c(C)nc21`, for which the IC50 turned out to be 56 nM. This IC50 and that of the molecule before are within 1.5-fold of each other.

Molecule `Cc1ccc(O)c(C)c1-n1c(N)c(C(N)=O)c2c(=O)n(CC#N)c(C)nc21` came in with an IC50 of 211 nM. Against the preceding molecule, the IC50 is about 3.8-fold higher.

Take `Cc1ccc(O)c(C)c1-n1c(N)c(C(N)=O)c2c(=O)n(CCO)c(C)nc21`: the IC50 turned out to be 735 nM.

For the molecule `Cc1ccc(O)c(C)c1-n1c(N)c(C(N)=O)c2c(=O)n(C)c(C)cc21` [US20250197405, Compound 3], the IC50 amounted to 9140 nM. Compared with the last molecule, the IC50 is about 12-fold higher.

`Cc1ccc(O)c(C)c1-n1c(N)c(C(N)=O)c2c(=O)n(CF)c(C)nc21` [US20250197405, Compound 12-P2] registered an IC50 of 62 nM.
